From patent publication US20250177405A1, “METHODS OF TREATING NEUROLOGICAL AND CARDIOVASCULAR CONDITIONS” (ASTROCYTE PHARMACEUTICALS, INC., priority 2021, published 2025)
Like-named read-outs stand apart in the source and are kept apart here.

Columns and labels:
brain A1R/A3R [1] = assay: estimated brain receptor occupancy of I-1 in neonatal pig efficacy studies; type: in vivo
Description: (§1) Receptor occupancy is a mass action relationship:
(§2) The percentage of a receptor occupied by an agonist or antagonist is a function of the drug concentration and the drug affinity for the receptor target. The challenge is that drug concentrations at the target site (in this case, brain, and CSF) can vary by species, as can affinity for the drug target. Affinity of I-1 for its receptor target can vary by as much as 5-fold between species. Accordingly, for each species, it is necessary to determine the I-1 affinity for its target as well as the concentration of I-1 at each administered dose in a relevant matrix.
Using this receptor occupancy estimate, we advanced to studies in neonatal pigs, targeting doses that would yield unbound brain and CSF concentrations that would provide a similar receptor occupancy to that associated with efficacy in the rodent models. In the pig, we had the advantage of conducting pharmacokinetic studies involving CSF collection, brain equilibrium dialysis to directly determine brain unbound extracellular fluid concentrations, plasma concentrations and finally total brain concentrations. […] This was a key study to validate the use of I-1 CSF concentrations to estimate brain receptor occupancy. In the pig efficacy studies, we achieved efficacy at estimated receptor occupancies of around 2%.

[2] = pharmacokinetics of I-1 after intravenous bolus in normal and tMCAO nonhuman primates; type: in vivo, nonhuman primate; conditions: for C0 / clearance / half-life / Vd: monkey, plasma, iv, 0.5 mg/kg, intravenous bolus 0.5 mg/kg; for Vd: read-out: Vdss
brain A1R/A3R [3] = assay: estimated brain receptor occupancy of I-1 in nonhuman primate stroke study; type: in vivo
Experimental: Cerebrospinal fluid drug concentration is an established proxy for unbound drug brain concentration that interacts with central receptor targets (references 46, 47). The unbound brain concentrations and resulting brain receptor occupancy at the A1R and A3R can be estimated using receptor affinity data and simple mass action equations (references 48, 49). […] Accordingly, during the 22 h infusion of I-1, sufficient CSF concentrations were available to provide coverage of central A1R and A3R in the macaque.
as §1, §2
We then proceeded to our key preclinical stroke efficacy model in nonhuman primates. Pre-efficacy pharmacokinetic studies obtained plasma and CSF pharmacokinetic data. […]

[4] = tested on: photothrombosis-induced stroke in mice; assay: mouse photothrombotic stroke model; type: in vivo
Experimental: Photothrombosis-induced Stroke: Photothrombosis is performed as described in Zheng et al 2010 (PloS One 5 (12): e14401). In brief, Rose Bengal is a fluorescent dye that when injected into the vasculature and excited, generates singlet oxygen that damages the endothelial wall and induces a local thrombosis (clot). Using this technique, mice are given a 0.1 mL tail-vein injection of sterilized Rose Bengal (RB, Sigma, U.S.A.) in artificial cerebral spinal fluid (aCSF). The RB concentration is 20 mg/mL. A cortical region is centered in the imaging field and illuminated with a green laser (543 nm, 5 mW) using a 0.8-NA 40× water-immersion objective (Nikon, Tokyo). The clot formation is monitored in real time until the targeted vessel or downstream capillaries are firmly occluded. […]
Animals and Photothrombosis-induced Stroke: Stroke is performed as described in Zheng et al 2010 (PloS One 5 (12): e14401). […] Depth of anesthesia is monitored and regulated according to vital signs, pinch withdrawal and eye blinks. […] Vital signs including oxygen saturation, respiratory rate, and heart rate are continuously monitored by using the MouseOx system (STARR Life Sciences). […]
Post photothrombotic infarction evaluation. The size of cerebral infarcts is evaluated using 2,3,5-Triphenyltetrazolium chloride (TTC) staining as described in Zheng et al 2010 (PloS One 5 (12): e14401). […]

For CSc1nc(N)c2ncn([C@H]3C(O)C(O)[C@]4(CO)C[C@H]34)c2n1 (stereo in doubt) [Compound I-1], which “estimated receptor occupancies at which efficacy was achieved” value (brain A1R/A3R [1]) is on record?
Its value is “around 2%”.

And the “I-1 plasma concentrations after single intravenous bolus” value ([2]; 8 h post-dose)?
Its value is “below bioanalytical limits of quantitation”.

And the C0 ([2]; Normal NHP (n = 3))?
The C0 was 329 ng/mL.

And the clearance ([2]; Normal NHP (n = 3))?
Its clearance is 29 mL/min/kg.

And the half-life ([2]; Normal NHP (n = 3))?
The half-life was 1.3 h.

What about the Vd ([2]; Normal NHP (n = 3)) of the same compound?
The Vd was 3.1 L/kg.

And the C0 ([2]; tMCAO NHP (n = 1))?
Its C0 is 544 ng/mL.

What about the clearance ([2]; tMCAO NHP (n = 1)) of the same compound?
Its clearance is 28 mL/min/kg.

What about the half-life ([2]; tMCAO NHP (n = 1)) of the same compound?
Its half-life is 1.5 h.

What about the Vd ([2]; tMCAO NHP (n = 1)) of the same compound?
The Vd was 3 L/kg.

And the “estimated receptor occupancy associated with significant efficacy” value (brain A1R/A3R [3]; NHP stroke study, Low, Mid, High Doses)?
The value was 1-15%.

And the “estimated receptor occupancy at which efficacy started” value (brain A1R/A3R [3]; monkey)?
Its value is roughly 34%.

And the “efficacy in presence of the A3 antagonist MRS1523” value ([4]; mouse photothrombotic stroke and TBI models)?
The value was “blocked”.

What about the “efficacy in mouse photothrombotic stroke model” value ([4]; mouse, in vivo) of the same compound?
Its value is “significant efficacy”.
